Columns and labels:
[1] = target: T1, human recombinant serotonin (5-Hydroxytryptamine) 5-HT2C receptor (Homo sapiens, UniProt P28335); test: Serotonin 5-HT2C radioligand binding assay ([3H]Mesulergine); conditions: compound at 0.1 μM; 1 nM [3H]Mesulergine; CHO-K1 cells; read-out: Percent Inhibition of ligand binding, Serotonin (0.1 μM) 5-HT2C
T1 construct: expressed in transfected cells; host or cells: Chinese hamster ovary (CHO-K1) cells
T1 sequence (P28335 33-458): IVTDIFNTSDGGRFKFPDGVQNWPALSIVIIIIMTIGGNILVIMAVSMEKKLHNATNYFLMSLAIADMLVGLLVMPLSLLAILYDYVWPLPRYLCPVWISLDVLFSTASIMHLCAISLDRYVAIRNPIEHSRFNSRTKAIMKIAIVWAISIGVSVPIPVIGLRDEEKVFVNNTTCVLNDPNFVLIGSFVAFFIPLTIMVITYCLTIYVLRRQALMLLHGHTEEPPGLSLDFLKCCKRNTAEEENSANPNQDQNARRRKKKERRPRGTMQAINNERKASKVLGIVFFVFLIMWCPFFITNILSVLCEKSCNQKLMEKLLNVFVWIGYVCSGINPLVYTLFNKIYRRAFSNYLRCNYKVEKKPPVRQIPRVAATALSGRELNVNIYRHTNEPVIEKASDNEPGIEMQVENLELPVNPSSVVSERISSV
Experimental: (§1) Compounds of the invention were incubated with 1 nM [^3H]Mesulergine for 60 min at 25° C. Non-specific binding was estimated in the presence of 1 μM Mianserin. Receptor proteins were filtered and washed, the filters were then counted to determine [^3H]Mesulergine specifically bound. Compounds were screened at 1 μM or lower, using 1% DMSO as vehicle. Biochemical assay results are presented as the percent inhibition of specific binding in Table 4.

[2] = target: human recombinant serotonin (5-Hydroxytryptamine) 5-HT7 receptor (Homo sapiens, UniProt P34969); test: Serotonin 5-HT7 radioligand binding assay ([3H]LSD); conditions: compound at 0.1 μM; 5.5 nM [3H]LSD; CHO cells; read-out: Percent Inhibition of ligand binding, Serotonin (0.1 μM) 5-HT7
Experimental: Compounds of invention were incubated with 5.5 nM [^3H] Lysergic acid diethylamide (LSD) for 2 h at 25° C. […] Receptor proteins were filtered and washed, the filters were then counted to determine [^3H]LSD specifically bound. Compounds were screened at 1 μM or lower, using 1% DMSO as vehicle. Biochemical assay results are presented as the percent inhibition of specific binding in Table 4.

[3] = target: T2, human recombinant serotonin (5-Hydroxytryptamine) 5-HT6 receptor (Homo sapiens, UniProt P50406); test: Serotonin 5-HT6 radioligand binding assay ([3H]LSD); conditions: compound at 0.1 μM, HeLa cells, read-out: Percent Inhibition of ligand binding, Serotonin (0.1 μM) 5-HT6
T2 construct: expressed in transfected cells; host or cells: human HeLa cells
Experimental: Compounds of the invention were incubated with 1.5 nM [3H]Lysergic acid diethylamide (LSD) for 120 min at 37° C. […] Receptor proteins were filtered and washed, the filters were then counted to determine [3H]LSD specifically bound. Compounds were screened at 1 μM or lower, using 1% DMSO as vehicle. Biochemical assay results are presented as the percent inhibition of specific binding in Table 4.

[4] = target: T3, human recombinant serotonin (5-Hydroxytryptamine) 5-HT2A receptor (Homo sapiens, UniProt P28223); test: Serotonin 5-HT2A radioligand binding assay ([3H]Ketanserin); conditions: 0.5 nM [3H]Ketanserin, CHO-K1 cells; for inhibition at 0.1 µM: compound at 0.1 μM, read-out: Percent Inhibition of ligand binding, Serotonin (0.1 μM) 5-HT2A; for inhibition at 1 µM: read-out: Percent Inhibition of ligand binding, Serotonin (1 μM) 5-HT2A
T3 construct: expressed in transfected cells; host or cells: Chinese hamster ovary (CHO-K1) cells
Experimental: as §1, with “with 0.5” for “with 1”, “nM [^3H]Ketanserin” for “nM [^3H]Mesulergine”, “determine [^3H]Ketanserin” for “determine [^3H]Mesulergine”

[5] = target: human recombinant dopamine D2L receptor (Homo sapiens, UniProt P14416); test: Dopamine D2L radioligand binding assay ([3H]Spiperone); conditions: compound at 1 μM, 0.16 nM [3H]Spiperone, CHO cells, read-out: Percent Inhibition of ligand binding, Dopamine (1μM)
Experimental: Compounds of the invention were incubated with 0.16 nM [^3H]Spiperone for 120 min at 25° C. Non-specific binding was estimated in the presence of 10 μM Haloperidol. Receptor proteins were filtered and washed, the filters were then counted to determine [^3H]Spiperone specifically bound. Compounds were screened at 1 μM or lower, using 1% DMSO as vehicle. Biochemical assay results are presented as the percent inhibition of specific binding in Table 3.

[6] = target: human recombinant histamine H1 receptor (Homo sapiens, UniProt P35367); test: Histamine H1 radioligand binding assay ([3H]Pyrilamine); conditions: compound at 1 μM, receptor expressed in CHO cells
Experimental: To evaluate in radioligand binding assays the activity of compounds of the invention, human recombinant histamine H1 receptor expressed in Chinese hamster ovary (CHO) cells (De Backer, M. D. et al., Biochem. Biophys. Res. Comm. 197(3):1601, 1993) in a modified Tris-HCl buffer (50 mM Tris-HCl, pH 7.4, 2 mM MgCl2, 100 mM NaCl, 250 mM Sucrose) was used. Compounds of the invention were incubated with 1.2 nM [^3H]Pyrilamine for 180 min at 25° C. Non-specific binding was estimated in the presence of 1 μM pyrilamine Receptor proteins were filtered and washed, the filters were then counted to determine [^3H]Pyrilamine specifically bound. Compounds were screened at 1 μM or lower, using 1% DMSO as vehicle. Biochemical assay results are presented as the percent inhibition of specific binding in Table 2.

[7] = target: T4, human recombinant adrenergic α2A receptor (Homo sapiens, UniProt P08913); test: Adrenergic α2A radioligand binding assay ([3H]MK-912); conditions: compound at 1 μM, 1 nM [3H]MK-912, insect Sf9 cells
T4 construct: expressed in transfected cells; host or cells: insect Sf9 cells
T4 sequence (P08913 1-465): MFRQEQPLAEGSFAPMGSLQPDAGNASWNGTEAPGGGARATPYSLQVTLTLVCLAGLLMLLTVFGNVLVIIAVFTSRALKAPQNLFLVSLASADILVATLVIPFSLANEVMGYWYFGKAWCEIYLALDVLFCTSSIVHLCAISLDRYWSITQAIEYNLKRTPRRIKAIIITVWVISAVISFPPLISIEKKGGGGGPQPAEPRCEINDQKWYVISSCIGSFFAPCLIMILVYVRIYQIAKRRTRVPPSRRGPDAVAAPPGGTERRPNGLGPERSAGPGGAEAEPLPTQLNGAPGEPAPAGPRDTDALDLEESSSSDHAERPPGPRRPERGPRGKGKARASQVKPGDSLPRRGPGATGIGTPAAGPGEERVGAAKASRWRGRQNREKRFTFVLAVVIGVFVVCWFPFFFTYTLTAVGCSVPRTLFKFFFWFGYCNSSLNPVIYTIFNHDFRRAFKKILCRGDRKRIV
Experimental: To evaluate in radioligand binding assays the activity of compounds of the invention, human recombinant adrenergic α2A receptor expressed in insect Sf9 cells (Uhlen S et al. J. Pharmacol. Exp. Ther. 271:1558, 1994) in a modified Tris-HCl buffer (50 mM Tris-HCl, pH 7.4, 12.5 mM MgCl2, 2 mM EDTA) was used. Compounds of invention were incubated with 1 nM [^3H]MK-912 for 60 min at 25° C. MK912 is (2S-trans)-1,3,4,5′,6,6′,7,12b-octahydro-1′,3′-dimethyl-spiro[2H-benzofuro[2,3-a]quinolizine-2,4′(1′H)-pyrimidin]-2′(3′H)-one hydrochloride Non-specific binding was estimated in the presence of 10 μM WB-4101 (2-(2,6-dimethoxyphenoxyethyl)aminomethyl-1,4-benzodioxane hydrochloride). Receptor proteins were filtered and washed, the filters were then counted to determine [^3H]MK-912 specifically bound.

T2 sequence (P50406 whole entry): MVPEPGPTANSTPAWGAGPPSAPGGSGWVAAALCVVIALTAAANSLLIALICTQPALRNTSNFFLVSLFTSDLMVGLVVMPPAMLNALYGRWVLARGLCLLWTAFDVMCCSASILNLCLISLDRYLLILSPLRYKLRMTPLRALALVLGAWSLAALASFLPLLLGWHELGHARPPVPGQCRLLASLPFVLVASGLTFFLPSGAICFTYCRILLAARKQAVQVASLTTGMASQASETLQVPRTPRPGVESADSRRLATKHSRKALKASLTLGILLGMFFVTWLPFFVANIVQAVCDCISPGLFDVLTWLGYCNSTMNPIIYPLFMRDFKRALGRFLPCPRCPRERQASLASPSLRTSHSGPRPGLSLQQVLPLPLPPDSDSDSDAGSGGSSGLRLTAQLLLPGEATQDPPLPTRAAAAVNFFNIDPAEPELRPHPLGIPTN
human recombinant histamine H1 receptor, sequence (P35367 whole entry): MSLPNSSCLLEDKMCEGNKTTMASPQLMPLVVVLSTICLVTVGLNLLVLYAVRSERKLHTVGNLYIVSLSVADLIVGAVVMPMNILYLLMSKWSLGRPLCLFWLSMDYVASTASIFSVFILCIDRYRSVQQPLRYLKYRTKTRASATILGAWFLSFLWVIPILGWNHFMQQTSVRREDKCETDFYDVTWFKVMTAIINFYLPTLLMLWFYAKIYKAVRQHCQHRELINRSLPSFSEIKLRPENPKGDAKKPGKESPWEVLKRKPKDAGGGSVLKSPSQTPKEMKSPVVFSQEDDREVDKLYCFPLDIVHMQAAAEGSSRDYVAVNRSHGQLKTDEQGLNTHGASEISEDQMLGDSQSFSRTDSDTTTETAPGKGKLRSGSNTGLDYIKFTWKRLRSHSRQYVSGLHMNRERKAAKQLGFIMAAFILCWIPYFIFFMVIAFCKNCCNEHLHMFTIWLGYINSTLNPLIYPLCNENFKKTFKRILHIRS
T3 sequence (P28223 whole entry): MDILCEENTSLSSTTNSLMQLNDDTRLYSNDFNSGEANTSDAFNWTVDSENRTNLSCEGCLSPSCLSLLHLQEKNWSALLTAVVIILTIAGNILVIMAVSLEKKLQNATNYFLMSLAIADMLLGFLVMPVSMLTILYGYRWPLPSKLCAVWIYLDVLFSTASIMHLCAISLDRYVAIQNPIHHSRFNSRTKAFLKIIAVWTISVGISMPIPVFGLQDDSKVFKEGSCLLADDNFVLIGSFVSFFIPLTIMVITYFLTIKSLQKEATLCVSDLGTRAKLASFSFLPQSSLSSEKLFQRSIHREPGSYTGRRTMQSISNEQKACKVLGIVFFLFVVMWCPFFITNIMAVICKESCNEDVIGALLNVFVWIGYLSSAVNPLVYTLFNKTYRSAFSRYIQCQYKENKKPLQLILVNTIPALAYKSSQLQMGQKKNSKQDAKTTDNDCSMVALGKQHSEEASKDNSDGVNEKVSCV
human recombinant serotonin (5-Hydroxytryptamine) 5-HT7 receptor, sequence (P34969 whole entry): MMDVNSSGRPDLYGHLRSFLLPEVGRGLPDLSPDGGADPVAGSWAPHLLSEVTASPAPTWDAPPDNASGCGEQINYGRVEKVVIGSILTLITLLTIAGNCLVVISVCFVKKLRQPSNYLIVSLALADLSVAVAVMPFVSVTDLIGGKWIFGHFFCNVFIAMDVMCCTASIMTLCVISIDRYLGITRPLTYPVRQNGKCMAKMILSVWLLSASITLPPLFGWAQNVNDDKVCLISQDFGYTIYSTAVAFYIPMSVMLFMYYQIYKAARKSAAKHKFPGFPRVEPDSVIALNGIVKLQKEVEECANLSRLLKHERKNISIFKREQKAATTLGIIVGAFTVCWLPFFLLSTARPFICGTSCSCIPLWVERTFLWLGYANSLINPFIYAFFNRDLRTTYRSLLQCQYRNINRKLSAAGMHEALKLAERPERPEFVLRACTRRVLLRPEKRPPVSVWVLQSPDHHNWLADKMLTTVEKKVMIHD
human recombinant dopamine D2L receptor, sequence (P14416 whole entry): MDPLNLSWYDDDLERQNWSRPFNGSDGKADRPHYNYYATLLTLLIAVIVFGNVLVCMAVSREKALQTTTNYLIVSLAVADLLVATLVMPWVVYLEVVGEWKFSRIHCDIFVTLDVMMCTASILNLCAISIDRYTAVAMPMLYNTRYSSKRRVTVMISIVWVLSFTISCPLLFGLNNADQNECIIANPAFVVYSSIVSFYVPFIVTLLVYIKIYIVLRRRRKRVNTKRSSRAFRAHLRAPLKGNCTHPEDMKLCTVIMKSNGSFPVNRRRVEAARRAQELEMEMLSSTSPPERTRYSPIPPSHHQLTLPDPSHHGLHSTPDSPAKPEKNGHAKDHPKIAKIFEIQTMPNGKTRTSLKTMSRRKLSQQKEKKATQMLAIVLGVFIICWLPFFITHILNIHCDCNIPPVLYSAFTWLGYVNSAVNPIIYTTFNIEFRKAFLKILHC

CCC(O)(Cn1c2c(c3cc(C)ccc31)CN(C)CC2)c1ccncc1 (stereo not shown) [Compound 1-24, 1-(2,8-dimethyl-3,4-dihydro-1H-pyrido[4,3-b]indol-5(2H)-yl)-2-(pyridin-4-yl)butan-2-ol]
inhibition at 0.1 µM [1]: 8%
inhibition at 0.1 µM [2]: 12%
inhibition at 0.1 µM [3]: 10%
inhibition at 0.1 µM [4]: 36%
inhibition at 1 µM [5]: 9%

Cc1ccc2c(c1)c1c(n2CC(C)c2ccc(C)nc2)CC(C)N(C)C1 (stereo not shown) [Compound 1-47, 2,3,8-trimethyl-5-(2-(6-methylpyridin-3-yl)propyl)-2,3,4,5-tetrahydro-1H-pyrido[4,3-b]indole]
inhibition at 0.1 µM [1]: 70%
inhibition at 0.1 µM [2]: 85%
inhibition at 0.1 µM [3]: 19%
inhibition at 0.1 µM [4]: 46%
inhibition at 1 µM [5]: 12%
inhibition at 1 µM [6]: 91%

CCCCC(O)(Cn1c2c(c3cc(Cl)ccc31)CN(C)CC2)c1ccc(F)cc1 (stereo not shown) [Compound 1-64, 1-(8-chloro-2-methyl-3,4-dihydro-1H-pyrido[4,3-b]indol-5(2H)-yl)-2-(4-fluorophenyl)hexan-2-ol]
Percent Inhibition of ligand binding, Serotonin (1 μM) 5-HT2A ([4]; compound at 1 μM): 98%
Percent Inhibition of ligand binding, Adrenergic (1 μM) a2A [7]: 88%

Cc1ccc2c(c1)c1c(n2CC(O)(c2ccc(F)cc2)C2CCCCC2)CCN(C)C1 (stereo not shown) [Compound 1-1, 1-cyclohexyl-2-(2,8-dimethyl-3,4-dihydro-1H-pyrido[4,3-b]indol-5(2H)-yl)-1-(4-fluorophenyl)ethanol]
inhibition at 0.1 µM [4]: 60%
inhibition at 1 µM ([4]; compound at 1 μM): 97%
inhibition at 1 µM [5]: 13%
inhibition at 1 µM [6]: 22%

Cc1ccc2c(c1)c1c(n2CCc2ccc(C(F)(F)F)nc2)CC(C)N(C)C1 (stereo not shown) [Compound 1-45, 2,3,8-trimethyl-5-(2-(6-(trifluoromethyl)pyridin-3-yl)ethyl)-2,3,4,5-tetrahydro-1H-pyrido[4,3-b]indole]
inhibition at 0.1 µM [1]: 50%
inhibition at 0.1 µM [2]: 78%
inhibition at 0.1 µM [3]: 18%
inhibition at 0.1 µM [4]: 51%
inhibition at 1 µM [5]: 0%
inhibition at 1 µM [6]: 96%

CCCCC(O)(Cn1c2c(c3cc(Cl)ccc31)CN(C)CC2)c1ccc(F)cc1 (stereo not shown) [Compound 1-7, 1-(8-chloro-2-methyl-3,4-dihydro-1H-pyrido[4,3-b]indol-5(2H)-yl)-2-(4-fluorophenyl)hexan-2-ol]
inhibition at 1 µM ([4]; compound at 1 μM): 98%
inhibition at 1 µM ([7]; read-out: Percent Inhibition of ligand binding, Adrenergic (1 μM) a2A): 88%

Cc1ccc2c(c1)c1c(n2CCc2ccc(C(F)(F)F)nc2)C(C)CN(C)C1 (stereo not shown) [Compound 1-51, 2,4,8-trimethyl-5-(2-(6-(trifluoromethyl)pyridin-3-yl)ethyl)-2,3,4,5-tetrahydro-1H-pyrido[4,3-b]indole]
inhibition at 0.1 µM [1]: 92%
inhibition at 0.1 µM [2]: 15%
inhibition at 0.1 µM [3]: 4%
inhibition at 0.1 µM [4]: 77%
inhibition at 1 µM [5]: 14%
inhibition at 1 µM [6]: 65%

Cc1ccc2c(c1)c1c(n2CCc2ccc(C)nc2)CC(C)N(C)C1 (stereo not shown) [Compound 1-44, 2,3,8-trimethyl-5-(2-(6-methylpyridin-3-yl)ethyl)-2,3,4,5-tetrahydro-1H-pyrido[4,3-b]indole]
inhibition at 0.1 µM [1]: 45%
inhibition at 0.1 µM [2]: 74%
inhibition at 0.1 µM [3]: 46%
inhibition at 0.1 µM [4]: 16%
inhibition at 1 µM [5]: 8%
inhibition at 1 µM [6]: 100%

Cc1ccc2c(c1)c1c(n2CC2(c3ccncc3)CC2)CCN(C)C1 [Compound 1-50, 2,8-dimethyl-5-((1-(pyridin-4-yl)cyclopropyl)methyl)-2,3,4,5-tetrahydro-1H-pyrido[4,3-b]indole]
inhibition at 0.1 µM [1]: -1%
inhibition at 0.1 µM [2]: 95%
inhibition at 0.1 µM [3]: 30%
inhibition at 0.1 µM [4]: 77%
inhibition at 1 µM [5]: 47%
inhibition at 1 µM [6]: 97%

Cc1ccc(CCn2c3c(c4cc(Cl)ccc42)CN(C)C(C)C3)cn1 (stereo not shown) [Compound 1-48, 8-chloro-2,3-dimethyl-5-(2-(6-methylpyridin-3-yl)ethyl)-2,3,4,5-tetrahydro-1H-pyrido[4,3-b]indole]
inhibition at 0.1 µM [1]: 40%
inhibition at 0.1 µM [2]: 86%
inhibition at 0.1 µM [3]: 50%
inhibition at 0.1 µM [4]: 30%
inhibition at 1 µM [5]: 12%
inhibition at 1 µM [6]: 101%
